Test systems include ACHN renal; EKVX NSCLC; HCT-15 colon; HOP-62 NSCLC; HT29 colon; IGROV1 ovarian; KM12 colon; MOLT-4 leukemia; NCI-H23 lung; NCI-H460 lung; OVCAR-4 ovarian; OVCAR-5 ovarian; SK-MEL-2 melanoma; SK-MEL-28 melanoma; SN12C renal; SW-620 colon; TK-10 renal; UACC-257 melanoma; UACC-62 melanoma; UO-31 renal.
Assay in all cases: inhibition of tumour cell growth, NCI panel, 48 h

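Where inhibition never reached the appropriate level, the endpoint shown equals the highest concentration tested. Otherwise, values were interpolated linearly from a five-concentration, 48-hour dose response in 96-well plates. TGI: total growth inhibition.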 A value given as a limit tells only on which side of the number the result lay.

For the compound `CN(C)CC1CCCC(CN2CCCCC2)C1=O` (configuration not stated), the TGI is 13.6 µM in the assay on ACHN renal; 28.7 µM with EKVX NSCLC; 27.9 µM with HCT-15 colon; above 100 µM in the assay with HOP-62 NSCLC; 25.1 µM in the assay on HT29 colon; 35.5 µM with IGROV1 ovarian. The TGI is 44.9 µM with KM12 colon; 12.5 µM in the assay with MOLT-4 leukemia; 35.8 µM in the assay on NCI-H23 lung; above 68.6 µM with NCI-H460 lung; 7.75 µM in the assay with OVCAR-4 ovarian; 46.5 µM in the assay on OVCAR-5 ovarian. In addition, the TGI was 31.1 µM in the assay on SK-MEL-2 melanoma; 27.6 µM in the assay with SK-MEL-28 melanoma; 16.8 µM in the assay on SN12C renal; 3.74 µM in the assay on SW-620 colon; 21.3 µM in the assay on TK-10 renal; 30.8 µM in the assay on UACC-257 melanoma. Besides, the TGI with UACC-62 melanoma was determined as 33.5 µM; in the assay on UO-31 renal, 26.7 µM.
As to `CC(C)OC(=O)Nc1cccc(Cl)c1`, the TGI in the assay on ACHN renal, with EKVX NSCLC, in the assay on HCT-15 colon, with HOP-62 NSCLC, in the assay with HT29 colon and with IGROV1 ovarian was above 100 µM in each case. Moreover, the TGI in the assay with KM12 colon, in the assay on MOLT-4 leukemia, with NCI-H23 lung, with NCI-H460 lung, in the assay with OVCAR-4 ovarian and in the assay on OVCAR-5 ovarian was above 100 µM in each case. In addition, the TGI in the assay with SK-MEL-2 melanoma, in the assay on SK-MEL-28 melanoma, with SN12C renal, in the assay on SW-620 colon, in the assay with TK-10 renal and with UACC-257 melanoma was above 100 µM each time. For the same compound, the TGI with UACC-62 melanoma and with UO-31 renal was above 100 µM in each case.
In the case of `CS/C(C#N)=C(\C#N)SC`, the TGI with ACHN renal was 29.9 µM; in the assay with EKVX NSCLC it was 62.2 µM; in the assay with HCT-15 colon, 5.95 µM; with HOP-62 NSCLC, above 100 µM; in the assay with HT29 colon it was 64.2 µM; with IGROV1 ovarian it was 43.8 µM. Besides, the TGI in the assay with KM12 colon was 37.7 µM; with MOLT-4 leukemia, 4.77 µM; in the assay on NCI-H23 lung, 79.4 µM; in the assay with NCI-H460 lung, 81.4 µM; in the assay on OVCAR-4 ovarian, 38.2 µM; with OVCAR-5 ovarian, above 100 µM. Moreover, the TGI in the assay on SK-MEL-2 melanoma is 31.7 µM; in the assay on SK-MEL-28 melanoma it was 37.7 µM; in the assay with SN12C renal it was 34.4 µM; in the assay on SW-620 colon, above 100 µM; in the assay on TK-10 renal it was 20.7 µM; in the assay on UACC-257 melanoma, 30.6 µM. Moreover, the values for the TGI in the assay with UACC-62 melanoma and in the assay on UO-31 renal were 14.4 µM and 18.9 µM, respectively.
With `CCN1CCN(c2nc3ccccc3nc2C(=O)c2ccc(OC)cc2)CC1`, the TGI is above 100 µM with ACHN renal; above 100 µM in the assay with EKVX NSCLC; above 100 µM in the assay with HCT-15 colon; 55.5 µM with HOP-62 NSCLC; above 100 µM with HT29 colon; above 100 µM with IGROV1 ovarian. The TGI in the assay with KM12 colon, in the assay on MOLT-4 leukemia, with NCI-H23 lung, in the assay on NCI-H460 lung, with OVCAR-4 ovarian and in the assay with OVCAR-5 ovarian was above 100 µM each time. Also, the TGI in the assay with SK-MEL-2 melanoma was above 100 µM; in the assay on SK-MEL-28 melanoma, above 100 µM; in the assay with SW-620 colon, above 100 µM; in the assay on TK-10 renal it was 70.4 µM; in the assay with UACC-257 melanoma it was 35.3 µM; with UACC-62 melanoma, 45 µM. In the assay with UO-31 renal, the TGI was above 100 µM.
Turning to `[O-]c1c[n+](CCCC[n+]2cc([O-])on2)no1`, the TGI in the assay on ACHN renal, in the assay with EKVX NSCLC, in the assay with HCT-15 colon, in the assay with HOP-62 NSCLC, in the assay on HT29 colon and with IGROV1 ovarian was above 100 µM in each case. Besides, the TGI in the assay on KM12 colon, with MOLT-4 leukemia, in the assay on NCI-H23 lung, with NCI-H460 lung, in the assay on OVCAR-4 ovarian and in the assay with OVCAR-5 ovarian was above 100 µM in each case. Moreover, the TGI in the assay on SK-MEL-2 melanoma, in the assay with SK-MEL-28 melanoma, in the assay on SN12C renal, in the assay with SW-620 colon, in the assay on TK-10 renal and in the assay on UACC-257 melanoma was above 100 µM throughout. In addition, the TGI in the assay on UACC-62 melanoma and with UO-31 renal was above 100 µM each time.
Consider `Nc1nc(Cl)cc(NCCCNc2cc(Cl)nc(N)n2)n1`, for which the TGI in the assay with EKVX NSCLC, in the assay on HCT-15 colon, in the assay on HOP-62 NSCLC, in the assay with HT29 colon, in the assay with IGROV1 ovarian and with KM12 colon was above 100 µM in each case. The TGI in the assay on MOLT-4 leukemia, in the assay with NCI-H23 lung, in the assay with NCI-H460 lung, in the assay with OVCAR-4 ovarian, with OVCAR-5 ovarian and in the assay with SK-MEL-2 melanoma was above 100 µM each time. Also, the TGI with SK-MEL-28 melanoma, in the assay with SN12C renal, in the assay with SW-620 colon, in the assay with TK-10 renal, in the assay with UACC-257 melanoma and in the assay on UACC-62 melanoma was above 100 µM each time. In addition, the TGI in the assay with UO-31 renal was above 100 µM.
Consider `c1ccc(CSC2(SCc3ccccc3)CCCC2)cc1`, for which the TGI in the assay with ACHN renal, in the assay on EKVX NSCLC, with HCT-15 colon, with HOP-62 NSCLC, with HT29 colon and with IGROV1 ovarian was above 10 µM in each case. Also, the TGI with KM12 colon, in the assay with MOLT-4 leukemia, with NCI-H23 lung, in the assay with NCI-H460 lung, with OVCAR-4 ovarian and with OVCAR-5 ovarian was above 10 µM in each case. Besides, the TGI in the assay on SK-MEL-2 melanoma, in the assay with SK-MEL-28 melanoma, in the assay with SN12C renal, in the assay on SW-620 colon, in the assay on TK-10 renal and with UACC-62 melanoma was above 10 µM each time. Further, the TGI in the assay with UO-31 renal is above 10 µM.
